Some results are limits rather than exact numbers.

The text below walks through data of patent US7803816B2, “MCH receptor antagonists” (Hoffmann-La Roche Inc., priority 2005, dated 2010).

The test has as its target T1, recombinant human MCHR1-receptors (Homo sapiens, UniProt Q99705).
T1 construct: expressed in transfected cells
Nature of the test: MCHR filter binding assay (competition binding). The note with it: membranes from CHO-K1 cells expressing human MCHR1; 0.2 nM [Phe13,[125I]Tyr19]-MCH; read-out: IC50 (nM), in vitro activity (binding assay). Put shortly: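 Membranes from CHO-K1 cells stably expressing human MCHR1 (2.8 μg) preincubated 15 min with competitor, then 1 h at rt with 0.2 nM [Phe13,[125I]Tyr19]-MCH in HEPES/CaCl2/BSA/phenanthroline/Triton buffer. Bound radioactivity counted after rapid filtration over PVP/BSA-treated GF/B filters.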

T1 sequence (Q99705 whole entry): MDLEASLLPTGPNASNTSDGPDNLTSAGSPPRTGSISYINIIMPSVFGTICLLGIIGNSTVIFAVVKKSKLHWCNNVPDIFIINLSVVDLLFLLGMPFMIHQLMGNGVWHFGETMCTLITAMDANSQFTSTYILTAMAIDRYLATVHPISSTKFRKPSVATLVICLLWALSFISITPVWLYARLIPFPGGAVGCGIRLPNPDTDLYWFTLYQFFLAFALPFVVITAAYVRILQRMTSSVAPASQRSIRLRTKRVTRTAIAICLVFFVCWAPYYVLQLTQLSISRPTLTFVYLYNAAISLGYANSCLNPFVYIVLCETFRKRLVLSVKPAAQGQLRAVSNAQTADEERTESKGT

For orientation: IC50 means the concentration that gives 50% inhibition. As for `CO[C@@H]1CN(C[C@@H]2Cc3ccc(Cl)cc3C2)CC[C@H]1n1c(C(C)(C)O)nc2cc(C)ccc21` [Example 113, 2-{1-[(3R,4R)-1-((R)-5-Chloro-indan-2-ylmethyl)-3-methoxy-piperidin-4-yl]-5-methyl-1H-benzoimidazol-2-yl}-propan-2-ol], the IC50 is < 20 nM.

Regarding `Cc1ccc2c(c1)CC(CN1CC[C@@H](n3c(C(C)(C)O)nc4cc(C)ccc43)[C@H](O)C1)C2` (stereo partly drawn) [Example 114, (3R,4R)-4-[2-(1-Hydroxy-1-methyl-ethyl)-5-methyl-benzoimidazol-1-yl]-1-(5-methyl-indan-2-ylmethyl)-piperidin-3-ol], the concentration for half-maximal inhibition (IC50) was in the range of 20 to 200 nM.

On to `CO[C@@H]1CN(C[C@@H]2Cc3ccc(Br)cc3C2)CC[C@H]1n1c(C(C)(C)O)nc2cc(C)ccc21` [Example 115, 2-{1-[(3R,4R)-1-((R)-5-Bromo-indan-2-ylmethyl)-3-methoxy-piperidin-4-yl]-5-methyl-1H-benzoimidazol-2-yl}-propan-2-ol], for which the IC50 was 20 to 200 nM.

With `CO[C@H]1CN(C[C@@H]2Cc3ccc(Br)cc3C2)CC[C@@H]1n1c(C(C)(C)O)nc2cc(C)ccc21` [Example 116, 2-{1-[(3S,4S)-1-((R)-5-Bromo-indan-2-ylmethyl)-3-methoxy-piperidin-4-yl]-5-methyl-1H-benzoimidazol-2-yl}-propan-2-ol], the IC50 fell in the range of 20 to 200 nM.

With `CO[C@@H]1CN(CC2Cc3ccc(C)cc3C2)CC[C@H]1n1c(C(C)(C)O)nc2cc(C)ccc21` (stereo partly drawn) [Example 117, 2-{1-[(3R,4R)-3-Methoxy-1-(5-methyl-indan-2-ylmethyl)-piperidin-4-yl]-5-methyl-1H-benzoimidazol-2-yl}-propan-2-ol], the half-inhibitory concentration (IC50) was 20 to 200 nM.

For `CO[C@@H]1CN(CC2Cc3ccc(F)cc3C2)CC[C@H]1n1cnc2cc(C)ccc21` (stereo partly drawn) [Example 118, 1-[(3R,4R)-1-(5-Fluoro-indan-2-ylmethyl)-3-methoxy-piperidin-4-yl]-5-methyl-1H-benzoimidazole], the IC50 lay within 200 to 5000 nM.

On to `CO[C@@H]1CN(CC2Cc3ccncc3C2)CC[C@H]1n1c(C)nc2cc(C)ccc21` (stereo partly drawn) [Example 119, 1-[(3R,4R)-1-(6,7-Dihydro-5H-[2]pyrindin-6-ylmethyl)-3-methoxy-piperidin-4-yl]-2,5-dimethyl-1H-benzoimidazole], for which the IC50 lay within 20 to 200 nM.

On to `CS(=O)(=O)c1ccc2c(c1)nc(C(F)(F)F)n2C1CCN(C[C@H]2Cc3ccc(Br)cc3C2)CC1` [Example 121, 1-[1-((S)-5-Bromo-indan-2-ylmethyl)-piperidin-4-yl]-5-methanesulfonyl-2-trifluoromethyl-1H-benzoimidazole], for which the half-maximal inhibitory concentration (IC50) fell in the range of 20 to 200 nM.

Regarding `CO[C@@H]1CN(C[C@H]2Cc3ccc(Br)cc3C2)CC[C@H]1n1c(C(C)(C)O)nc2cc(C)c(F)cc21` [Example 123, 2-{1-[(3R,4R)-1-((S)-5-Bromo-indan-2-ylmethyl)-3-methoxy-piperidin-4-yl]-6-fluoro-5-methyl-1H-benzoimidazol-2-yl}-propan-2-ol], the half-maximal inhibitory concentration (IC50) is < 20 nM.

`Cc1cc2nc(C(C)(C)O)n(C3CCN(C[C@H]4Cc5ccc(Br)cc5C4)CC3)c2cc1F` [Example 124, 2-{1-[1-((S)-5-Bromo-indan-2-ylmethyl)-piperidin-4-yl]-6-fluoro-5-methyl-1H-benzoimidazol-2-yl}-propan-2-ol]: the half-maximal inhibitory concentration (IC50) is < 20 nM.

For “N-(2-{2-[4-(2,5-Dimethyl-benzoimidazol-1-yl)-piperidin-1-yl]-ethyl}-indan-5-yl)-isobutyramide [Example 58]”, the IC50 lay in the range of 200 to 5000 nM.

For the molecule “N-{(R)-2-[(3R,4R)-4-(2,5-Dimethyl-benzoimidazol-1-yl)-3-methoxy-piperidine-1-carbonyl]-indan-5-yl}-isobutyramide [Example 57]”, the concentration for half-maximal inhibition (IC50) lay in the range of 200 to 5000 nM.

Turning to “{(R)-2-[4-(2-tert-Butyl-5-methyl-benzoimidazol-1-yl)-piperidin-1-ylmethyl]-indan-5-yl}-methyl-amine [Example 56]”, the half-maximal inhibitory concentration (IC50) was in the range of 200 to 5000 nM.
